ChEMBL document CHEMBL1201862, “PubChem BioAssay data set” (2004)
“And” between values parts separate entries of the source, which are not always exact repeats. Identical values can stand only once. The source made the active and inactive calls.

Legend:
[1] = biological target: Protein disulfide-isomerase (Homo sapiens, UniProt P07237); test: inhibition of PDI-mediated insulin reduction – biochemical, turbidity, dry powder samples, set 2, confirmation (AID 652146)
Caspase-6 = biological target: T1, Caspase-6 (Homo sapiens, UniProt P55212); test: inhibition of CASP6 peptide cleavage – biochemical, VEID-R110 fluorescence, cherry-pick, dose response (AID 720632)
T1 sequence (P55212 whole entry): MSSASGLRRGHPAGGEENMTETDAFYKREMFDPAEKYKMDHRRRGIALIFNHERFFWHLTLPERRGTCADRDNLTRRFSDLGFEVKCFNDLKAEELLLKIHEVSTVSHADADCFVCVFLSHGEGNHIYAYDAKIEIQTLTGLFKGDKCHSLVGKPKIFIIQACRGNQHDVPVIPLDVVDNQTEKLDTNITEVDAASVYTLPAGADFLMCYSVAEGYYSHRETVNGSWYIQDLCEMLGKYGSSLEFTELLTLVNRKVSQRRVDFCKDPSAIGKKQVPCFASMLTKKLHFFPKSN

[2] = biological target: DNA dC->dU-editing enzyme APOBEC-3A (Homo sapiens, UniProt P31941); test: Dose Response confirmation of small molecule APOBEC3A DNA Deaminase Inhibitors via a fluorescence-based single-stranded DNA deaminase assay. [Related pubchem assays (depositor defined):AID493011, AID493024]; format: functional
Sequence of DNA dC->dU-editing enzyme APOBEC-3A (P31941 whole entry): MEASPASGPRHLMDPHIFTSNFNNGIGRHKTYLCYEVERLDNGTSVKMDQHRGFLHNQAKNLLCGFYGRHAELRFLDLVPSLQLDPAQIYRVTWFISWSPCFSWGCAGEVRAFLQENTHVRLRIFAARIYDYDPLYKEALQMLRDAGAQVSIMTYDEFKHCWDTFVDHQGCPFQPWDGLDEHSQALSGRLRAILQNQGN

Caspase-8 = Caspase-8 (Homo sapiens, UniProt Q14790); test: inhibitors of purified CASP8 protease – biochemical, Z-IETD-R110 fluorescence, cherry-picked samples, selectivity assay for caspase-6 inhibitor project, dose response (AID 743294)
Sequence of Caspase-8 (Q14790 217-374 limits assumed): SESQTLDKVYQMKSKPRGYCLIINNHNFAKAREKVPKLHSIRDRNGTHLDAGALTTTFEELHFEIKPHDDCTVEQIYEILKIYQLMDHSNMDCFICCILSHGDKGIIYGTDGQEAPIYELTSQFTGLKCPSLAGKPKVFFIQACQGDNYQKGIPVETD
Sequence of Caspase-8 (Q14790 385-479 limits assumed): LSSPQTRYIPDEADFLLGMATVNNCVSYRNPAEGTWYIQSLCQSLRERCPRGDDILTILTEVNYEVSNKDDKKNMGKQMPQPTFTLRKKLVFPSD

[3] = biological target: DNA dC->dU-editing enzyme APOBEC-3G (Homo sapiens, UniProt Q9HC16); format: functional;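 also: Dose-response counterscreen measuring inhibition of APOBEC3G DNA deaminase activity, run while confirming APOBEC3A inhibitors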
Sequence of DNA dC->dU-editing enzyme APOBEC-3G (Q9HC16 whole entry): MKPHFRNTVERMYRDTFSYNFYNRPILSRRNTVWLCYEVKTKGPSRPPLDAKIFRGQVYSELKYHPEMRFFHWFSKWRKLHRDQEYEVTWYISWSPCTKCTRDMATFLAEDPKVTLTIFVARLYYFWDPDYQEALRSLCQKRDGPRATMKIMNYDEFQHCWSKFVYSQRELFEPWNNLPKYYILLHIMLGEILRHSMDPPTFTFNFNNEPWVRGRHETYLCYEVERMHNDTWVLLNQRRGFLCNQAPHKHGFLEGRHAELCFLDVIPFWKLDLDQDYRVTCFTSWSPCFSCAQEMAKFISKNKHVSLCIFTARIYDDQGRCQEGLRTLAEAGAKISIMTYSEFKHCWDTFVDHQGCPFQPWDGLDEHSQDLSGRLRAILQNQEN

[4] = viability loss in THP-1 monocytes – THP-1 cells, cytotoxicity control for Vif-APOBEC3G degradation inhibitor project, dose response (AID 1117359); format: functional; conditions: THP-1
Protein Tat = Protein Tat (Human immunodeficiency virus type 1 group M subtype B (isolate HXB2)(HIV-1), UniProt P04608); format: functional;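 also: tat binding to TAR RNA read out by fluorescence polarization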
Sequence of Protein Tat (P04608 whole entry): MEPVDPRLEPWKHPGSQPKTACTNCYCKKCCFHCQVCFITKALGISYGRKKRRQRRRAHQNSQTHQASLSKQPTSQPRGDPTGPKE

[5] = Counterscreen for activators of the function of SWI/SNF related, matrix associated, actin dependent regulator of chromatin, subfamily a, member 2 (SMARCA2, BRM): Luminescence-based cell-based high throughput dose response assay to identify non-selective compounds using the VP16 reporter assay.; format: functional
[6] = biological target: SWI/SNF-related matrix-associated actin-dependent regulator of chromatin subfamily A member 2 (Homo sapiens, UniProt P51531); test: Luminescence-based cell-based high throughput dose response assay to identify activators of the function of SWI/SNF related, matrix associated, actin dependent regulator of chromatin, subfamily a, member 2 (SMARCA2, BRM).; format: functional
Sequence of SWI/SNF-related matrix-associated actin-dependent regulator of chromatin subfamily A member 2 (P51531 whole entry): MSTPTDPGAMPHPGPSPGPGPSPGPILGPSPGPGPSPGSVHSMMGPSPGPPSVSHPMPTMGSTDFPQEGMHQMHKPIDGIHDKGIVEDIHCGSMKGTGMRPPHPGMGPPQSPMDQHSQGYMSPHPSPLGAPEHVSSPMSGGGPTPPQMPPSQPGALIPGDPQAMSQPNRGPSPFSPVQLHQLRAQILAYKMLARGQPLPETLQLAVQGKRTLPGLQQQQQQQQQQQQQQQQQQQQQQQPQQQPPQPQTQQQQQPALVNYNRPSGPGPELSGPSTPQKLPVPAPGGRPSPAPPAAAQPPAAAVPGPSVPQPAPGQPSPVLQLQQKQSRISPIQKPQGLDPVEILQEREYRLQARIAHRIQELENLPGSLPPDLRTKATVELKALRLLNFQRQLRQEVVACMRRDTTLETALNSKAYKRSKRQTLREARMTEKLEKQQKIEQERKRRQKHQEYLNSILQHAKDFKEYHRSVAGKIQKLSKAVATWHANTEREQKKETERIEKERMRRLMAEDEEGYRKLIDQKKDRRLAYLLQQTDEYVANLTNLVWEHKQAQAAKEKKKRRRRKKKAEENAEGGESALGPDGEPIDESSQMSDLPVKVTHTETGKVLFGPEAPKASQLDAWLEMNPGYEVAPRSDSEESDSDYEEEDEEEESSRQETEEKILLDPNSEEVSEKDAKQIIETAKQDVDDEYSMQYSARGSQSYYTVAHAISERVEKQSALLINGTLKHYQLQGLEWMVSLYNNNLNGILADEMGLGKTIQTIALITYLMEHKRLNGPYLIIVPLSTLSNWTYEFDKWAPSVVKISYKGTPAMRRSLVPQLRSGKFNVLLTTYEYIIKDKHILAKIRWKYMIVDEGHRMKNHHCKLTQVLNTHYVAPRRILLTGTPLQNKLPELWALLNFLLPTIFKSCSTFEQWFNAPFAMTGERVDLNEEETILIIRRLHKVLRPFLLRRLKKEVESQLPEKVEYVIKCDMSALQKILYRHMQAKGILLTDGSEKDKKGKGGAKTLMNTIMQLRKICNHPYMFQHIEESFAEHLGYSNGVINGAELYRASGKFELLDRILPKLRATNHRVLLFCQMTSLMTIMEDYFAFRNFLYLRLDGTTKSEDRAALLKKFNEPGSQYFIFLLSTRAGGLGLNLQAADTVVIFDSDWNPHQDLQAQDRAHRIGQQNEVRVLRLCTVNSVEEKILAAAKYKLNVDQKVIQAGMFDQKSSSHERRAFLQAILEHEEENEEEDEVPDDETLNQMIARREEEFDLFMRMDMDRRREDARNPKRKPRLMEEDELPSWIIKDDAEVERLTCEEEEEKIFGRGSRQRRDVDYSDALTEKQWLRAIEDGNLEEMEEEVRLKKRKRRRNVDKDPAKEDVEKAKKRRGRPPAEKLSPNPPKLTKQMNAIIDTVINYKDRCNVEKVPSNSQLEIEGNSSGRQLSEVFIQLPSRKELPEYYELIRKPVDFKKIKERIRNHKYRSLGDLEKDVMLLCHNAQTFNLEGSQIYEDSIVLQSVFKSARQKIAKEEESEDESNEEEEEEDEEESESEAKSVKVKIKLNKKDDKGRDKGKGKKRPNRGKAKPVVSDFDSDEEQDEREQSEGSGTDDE

[7] = biological target: Endoplasmic reticulum aminopeptidase 1 (Homo sapiens, UniProt Q9NZ08); test: inhibition of human ERAP1 enzyme activity – biochemical, cherry-pick, set 2, plate reader, dose response (AID 743314)
Sequence of Endoplasmic reticulum aminopeptidase 1 (Q9NZ08 whole entry): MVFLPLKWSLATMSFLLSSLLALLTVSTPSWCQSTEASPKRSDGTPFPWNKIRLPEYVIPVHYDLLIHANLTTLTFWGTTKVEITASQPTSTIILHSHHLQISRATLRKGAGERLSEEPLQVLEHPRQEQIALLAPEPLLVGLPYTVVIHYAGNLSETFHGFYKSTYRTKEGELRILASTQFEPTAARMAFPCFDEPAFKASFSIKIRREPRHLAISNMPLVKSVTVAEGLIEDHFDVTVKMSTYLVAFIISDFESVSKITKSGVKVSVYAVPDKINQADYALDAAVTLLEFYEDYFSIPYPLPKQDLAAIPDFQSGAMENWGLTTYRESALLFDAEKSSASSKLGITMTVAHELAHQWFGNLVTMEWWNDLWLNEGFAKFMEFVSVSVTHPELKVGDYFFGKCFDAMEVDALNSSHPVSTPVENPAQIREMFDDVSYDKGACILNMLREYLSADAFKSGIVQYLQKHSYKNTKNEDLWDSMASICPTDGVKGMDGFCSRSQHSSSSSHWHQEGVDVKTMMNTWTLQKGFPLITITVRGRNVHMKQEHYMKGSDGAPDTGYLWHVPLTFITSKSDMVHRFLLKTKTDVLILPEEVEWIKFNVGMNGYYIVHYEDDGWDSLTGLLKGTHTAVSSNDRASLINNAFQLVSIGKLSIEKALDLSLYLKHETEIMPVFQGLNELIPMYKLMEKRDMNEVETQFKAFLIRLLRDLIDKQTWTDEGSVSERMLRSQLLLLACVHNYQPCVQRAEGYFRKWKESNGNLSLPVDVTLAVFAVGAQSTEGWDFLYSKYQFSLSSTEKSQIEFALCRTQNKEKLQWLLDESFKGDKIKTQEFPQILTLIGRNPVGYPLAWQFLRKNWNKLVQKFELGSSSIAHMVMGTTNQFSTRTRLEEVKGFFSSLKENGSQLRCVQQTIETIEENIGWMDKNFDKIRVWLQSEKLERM

[8] = biological target: T2, Beta-2 adrenergic receptor (Homo sapiens, UniProt P07550); test: Dose response for HTS for Beta-2AR agonists via FAP method from Powderset2.; format: functional
T2 sequence (P07550 whole entry): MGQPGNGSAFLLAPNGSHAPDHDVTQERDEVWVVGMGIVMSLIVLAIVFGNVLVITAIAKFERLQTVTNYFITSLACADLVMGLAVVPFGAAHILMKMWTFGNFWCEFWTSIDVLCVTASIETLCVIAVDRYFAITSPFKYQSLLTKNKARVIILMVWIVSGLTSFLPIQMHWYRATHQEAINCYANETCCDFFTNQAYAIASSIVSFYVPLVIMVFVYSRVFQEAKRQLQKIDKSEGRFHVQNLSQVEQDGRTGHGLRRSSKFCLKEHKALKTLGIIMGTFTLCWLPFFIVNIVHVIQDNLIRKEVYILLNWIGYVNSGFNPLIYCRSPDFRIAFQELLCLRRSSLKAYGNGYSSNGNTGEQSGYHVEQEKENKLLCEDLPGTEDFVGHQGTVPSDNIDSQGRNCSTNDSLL

[9] = biological target: T2, Beta-2 adrenergic receptor; test: ADRB2 activation measured by internalization – cell-based, FAP fluorogen, flow cytometry, cherry pick 1, dose response (AID 588763); format: functional
fMet-Leu-Phe receptor = fMet-Leu-Phe receptor (Homo sapiens, UniProt P21462); test: formyl peptide receptor binders – dose response (AID 519); format: functional
Sequence of fMet-Leu-Phe receptor (P21462 whole entry): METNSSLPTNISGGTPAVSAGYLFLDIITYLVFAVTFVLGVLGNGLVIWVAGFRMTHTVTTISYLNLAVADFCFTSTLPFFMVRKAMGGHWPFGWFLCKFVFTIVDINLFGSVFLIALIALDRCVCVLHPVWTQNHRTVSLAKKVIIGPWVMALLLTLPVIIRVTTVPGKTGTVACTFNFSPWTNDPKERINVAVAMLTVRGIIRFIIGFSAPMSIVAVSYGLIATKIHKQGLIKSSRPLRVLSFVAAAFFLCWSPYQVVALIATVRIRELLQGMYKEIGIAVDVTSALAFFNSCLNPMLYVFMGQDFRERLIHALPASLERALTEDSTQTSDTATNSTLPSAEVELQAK

[10] = viability loss in HEK293T cells – cell-based, cherry-picks, cytotoxicity control for HIV Vif inhibitor project, dose response (AID 652208); format: functional
Vero = test: cells; format: functional; conditions: Chlorocebus sabaeus

Sequence of Protein disulfide-isomerase (P07237 whole entry): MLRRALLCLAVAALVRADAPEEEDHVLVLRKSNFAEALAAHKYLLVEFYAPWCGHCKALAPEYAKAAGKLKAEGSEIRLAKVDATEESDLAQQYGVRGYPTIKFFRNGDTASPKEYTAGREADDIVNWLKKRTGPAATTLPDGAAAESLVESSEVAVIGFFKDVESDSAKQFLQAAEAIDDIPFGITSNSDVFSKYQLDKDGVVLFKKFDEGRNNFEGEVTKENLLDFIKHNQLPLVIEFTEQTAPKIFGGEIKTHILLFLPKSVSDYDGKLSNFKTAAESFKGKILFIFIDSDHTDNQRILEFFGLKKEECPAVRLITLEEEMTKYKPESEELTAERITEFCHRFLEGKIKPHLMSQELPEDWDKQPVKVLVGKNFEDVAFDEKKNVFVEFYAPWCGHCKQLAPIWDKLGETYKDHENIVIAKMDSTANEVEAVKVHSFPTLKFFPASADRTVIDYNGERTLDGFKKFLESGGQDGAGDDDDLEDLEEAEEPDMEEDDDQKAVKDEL

## CCOC(=O)C1(CCOc2ccccc2)CCN(Cc2ccc(O)cc2)CC1
[1]
  AC50: 10 µM (active)

## CN(CC(=O)Nc1c(Cl)cccc1Cl)C(=O)c1cccc(-n2cccc2)c1
Caspase-6
  AC50: 1.88 µM (active)
[2]
  IC50: 13.9 µM (active)
Caspase-8
  AC50: > 70 µM (inactive)
[3]
  IC50: 34.6 µM (active)
[4]
  CC50: > 40 µM (active)
Protein Tat
  IC50: > 100 µM (active)

## COc1ccc(Br)c(C(=O)Nc2nc3ccccc3[nH]2)c1
[5]
  EC50: > 91.1 µM (inactive)
[6]
  EC50: > 91.1 µM (inactive)

## COCCCn1c(C(=O)N2CCOCC2)cc2c(=O)n3ccccc3nc21
[7]
  AC50: 9.81 µM (active)

## CCOC(=O)c1ccc(NC(=O)COc2ccc(S(=O)(=O)N3CCCC3)cc2)cc1
[8]
  EC50: 1.37 µM (active)
[9]
  EC50: 391 nM (active) and 162 nM (active)

## CCC(SC1=Nc2ccccc2C2=NC(CC(C)C)C(=O)N12)C(=O)Nc1ccc2c(c1)OCO2 (stereo not given)
fMet-Leu-Phe receptor
  Ki: 37.6 µM (inactive)

## CCn1cc(CN2CCCC(C(=O)Nc3cccc(-c4cc5ccccc5[nH]4)c3)C2)c(C)n1 (stereo not given)
[10]
  AC50: 40.9 µM (active)
Vero
  CC50: 24.9 µM (active)
